Measured values as given in US20120196854A1, “PHARMACEUTICAL COMPOSITION COMPRISING AROMATIC HETEROCYCLIC COMPOUND” (Kyowa Hakko Kirin Co., Ltd., priority 2009, published 2012).

Tests used:
[1] = tested on: mouse model of asthma; assay: Airway hyperresponsiveness and eosinophil infiltration in the airway in a mouse model of asthma; assay type: in vivo; conditions: 3 mg/kg orally once daily during antigen exposure, OVA-sensitized BALB/c mice
Method: The mouse model of asthma was prepared as follows. For experimental use, 6-week-old male BALB/c mice were purchased from Charles River Japan (Atsugi, Kanagawa). Equal amounts of a 0.5 mg/mL solution of ovalbumin in physiological saline and a 10 mg/mL suspension of aluminum hydroxide in physiological saline were mixed to give a sensitizing fluid. With well mixing of the sensitization fluid, 0.2 mL of the fluid was intraperitoneally administered to each mouse for sensitization. About 1 week after the initial sensitization, the same procedure was performed for additional sensitization. […]
The expression of airway hyperresponsiveness (increase of airway reactivity) was evaluated by measuring, under anesthesia, airway reactivity to methacholine (MCh: acetyl-β-methylcholine chloride, Cat. No. A-2251, Sigma-Aldrich) using a respiratory function analyzer [BioSystem XA; version 2.0.2.21 for Windows (registered trademark), preamplifier: MAX2215, body plethysmography box: PLY3011, pressure transducer: Validyne DP45-28, flaw transducer: Validyne DP45-14, Buxco Electronics, Troy, N.Y., USA]. […] As an indicator of airway reactivity, respiratory resistance (RL) values recorded every 5 seconds by the respiratory function analyzer were used. After fixing a mouse to the device and confirming the RL stability, the value after intravenous administration of a physiological saline solution was recorded first. […]

[2] = molecular target: T1, cyclooxygenase-2 (COX-2) (Homo sapiens, UniProt P35354); assay: Inhibition of COX-2 enzyme activity; assay type: biochemical; conditions: at a concentration of 10 μmol/L; read-out: inhibitory rate, COX-2
T1 sequence (P35354 18-604): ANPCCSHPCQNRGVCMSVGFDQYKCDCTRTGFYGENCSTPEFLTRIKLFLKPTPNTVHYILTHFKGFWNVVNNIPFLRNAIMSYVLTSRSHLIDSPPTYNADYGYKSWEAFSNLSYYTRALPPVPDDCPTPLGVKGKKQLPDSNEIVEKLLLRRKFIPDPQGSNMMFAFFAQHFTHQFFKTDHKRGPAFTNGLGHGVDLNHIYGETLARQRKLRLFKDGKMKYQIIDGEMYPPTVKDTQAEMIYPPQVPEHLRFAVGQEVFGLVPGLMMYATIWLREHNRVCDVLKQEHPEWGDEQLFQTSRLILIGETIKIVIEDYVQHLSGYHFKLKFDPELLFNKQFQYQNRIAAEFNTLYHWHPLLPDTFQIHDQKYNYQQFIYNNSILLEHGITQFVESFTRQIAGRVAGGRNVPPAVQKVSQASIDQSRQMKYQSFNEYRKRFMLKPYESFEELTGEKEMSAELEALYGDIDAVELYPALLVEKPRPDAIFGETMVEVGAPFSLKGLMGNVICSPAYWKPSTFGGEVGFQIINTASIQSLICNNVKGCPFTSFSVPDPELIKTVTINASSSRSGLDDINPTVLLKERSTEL

O=C(O)c1cc(-c2ccco2)nc2ccc3nn(-c4ccccc4)nc3c12 [Compound 133, 7-(furan-2-yl)-2-phenyl-2H-[1,2,3]triazolo[4,5-f]quinoline-9-carboxylic acid]
inhibition of the expression of airway hyperresponsiveness [1]: 98% | inhibition of eosinophil infiltration in the airway ([1]; BAL fluid): 55% | inhibition at 10 µM [2]: ≤ 20%
